Patent US5563154A, “Tetrahydro-quinolinyl/isoquinolinyl-terminal alkylamino ethynyl alanine amino diol compounds for treatment of hypertension” (G. D. Searle & Co., priority 1995, dated 1996)
Non-standard residues stand in square brackets, D forms with d. Residues, ends and D or L forms follow the SMILES beside them. *: point of attachment. Sta = CC(C)C[C@H](N)[C@@H](O)CC(=O)O; Isovaleryl = CC(C)CC(=O)*

What was measured:
human renin = target: T1, human renin (Homo sapiens, UniProt P00797); assay: Human Renin Inhibition in vitro (angiotensin I produced, by radioimmunoassay); type: biochemical; settings: pH 7.4, 37° C., two hours, human plasma
T1 construct: purchased National Institute for Biological Standards, London
T1 sequence (P00797 67-406): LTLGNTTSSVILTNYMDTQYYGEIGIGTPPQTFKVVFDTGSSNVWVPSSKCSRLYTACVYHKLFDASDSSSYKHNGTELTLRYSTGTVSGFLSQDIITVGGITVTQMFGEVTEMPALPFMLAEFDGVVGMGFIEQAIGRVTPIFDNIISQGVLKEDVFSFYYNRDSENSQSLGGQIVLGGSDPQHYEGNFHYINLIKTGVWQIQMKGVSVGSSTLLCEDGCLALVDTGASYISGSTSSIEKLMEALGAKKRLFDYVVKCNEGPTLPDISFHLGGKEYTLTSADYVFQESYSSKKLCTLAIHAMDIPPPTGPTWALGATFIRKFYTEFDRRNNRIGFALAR
Procedure: Compounds of Formula I were evaluated as inhibitors of human renin in an in vitro assay, as follows: This human renin inhibition test has been previously described in detail [Papaioannou et al., Clinical and Experimental Hypertension, A7(9), 1243-1257 (1985)]. Human renin was obtained from the National Institute for Biological Standards, London. An incubation mixture was prepared containing the following components: in a total volume of 0.25 mL: 100 mM Tris-acetate buffer at pH 7.4, 25×10^-6 Goldblatt units of renin, 0.05 mL of plasma from human volunteers taking oral contraceptives, 6.0 mM Na-EDTA, 2.4 mM phenylmethyl sulfonyl fluoride, 1.5 mM 8-hydroxyquinoline, 0.4 mg/mL bovine serum albumin (BSA), and 0.024 mg/mL neomycin sulfate. This mixture was incubated for two hours at 37° C. in the presence or absence of renin inhibitors. The produced angiotensin I was determined by radioimmunoassay (New England Nuclear kit). Test compounds to be assayed were dissolved in DMSO and diluted with 100mM Tris-acetate buffer at pH 7.4 containing 0.5% BSA to the appropriate concentration. The final concentration of organic solvent in the reaction mixture was less than 1%. Control incubations at 37° C. were used to correct for effects of organic solvent on renin activity.

hog renin = settings: after the injection of hog renin into nephrectomized rats; cited from earlier work
pepsin = settings: cited from earlier work
cathepsin D = settings: cited from earlier work
renin = settings: cited from earlier work

IC50 (human renin) [nM]	Compound	reduce blood pressure in vivo (hog renin)	inhibitor of pepsin (pepsin)	inhibitor of cathepsin D (cathepsin D)	inhibitor of renin (renin)
0.15	C#CC[C@H](NC(=O)[C@@H](CC(=O)N(C)CCc1ccccn1)Cc1ccccc1)C(=O)N[C@@H](CC1CCCCC1)[C@@H](O)[C@@H](O)CC(C)C (relative stereo) [Example 1, N^1-[1R*-[[[1S, 1R*- (cyclohexylmethyl)-2S*, 3R*-dihydroxy-5-methylhexyl]amino]carbonyl]-3-butynyl]-N^4-methyl-2S*-(phenylmethyl)-N^4-[2-(2-pyridinyl)ethyl]butanediamide]	–	–	–	–
–	CC(C)CC(=O)N[C@H](C(=O)N[C@H](C(=O)N[C@@H](CC(C)C)[C@@H](O)CC(=O)N[C@@H](C)C(=O)N[C@@H](CC(C)C)[C@@H](O)CC(=O)O)C(C)C)C(C)C [pepstatin] (Isovaleryl-VV[Sta]A[Sta]-OH)	reduce blood pressure in vivo	inhibitor	inhibitor	inhibitor
